Assay results published in publication PMC11865577 (2024).

Experiments:
[1] = test system: hsa-mir-6850 (RNA, G4) AGCCGGGGCGGGAGGGGAAGGGACGCCCGGCU; experiment: fluorescence titration; details: 20 mM NaCl, 80 mM KCl, apparent
[2] = test system: hsa-mir-191 (RNA, miRNA) AGCCAGCUGUUGUCUCCAGAGCAUUCCAGCUGGCU; experiment: fluorescence titration; details: 20 mM NaCl, 80 mM KCl, phosphate pH 7.0, apparent
[3] = test system: hsa-mir-21 (RNA, miRNA) AGCGUUGACUGUUGAAUCUCAUGGCAACGCU; experiment: fluorescence titration; details: 20 mM NaCl, 80 mM KCl, phosphate pH 7.0, apparent
[4] = test system: hsa-mir-221 (RNA, miRNA) AGCAGAUUUCUGUGUUCGUUAGGCAACAGCUGCU; experiment: fluorescence titration; details: 20 mM NaCl, 80 mM KCl, phosphate pH 7.0, apparent
[5] = test system: hsa-mir-374a (RNA, miRNA) AGCUAAGUGUUAUAGCACUUAGCU; experiment: fluorescence titration; details: 20 mM NaCl, 80 mM KCl, phosphate pH 7.0, apparent
[6] = test system: hsa-mir-4437 (RNA, miRNA) AGCUCCACAAGGAGGGGAUGACCCUUGUGGGGCU; experiment: fluorescence titration; details: 20 mM NaCl, 80 mM KCl; 20 mM phosphate pH 7.0, 1% DMSO, 20 °C; apparent
[7] = test system: hsa-mir-4520-1 loop (RNA, miRNA) AGCCCAAAUCAGAAAAGGAUUUGGGCU; experiment: fluorescence titration; details: 20 mM NaCl, 80 mM KCl; 20 mM phosphate pH 7.0, 1% DMSO, 20 °C; apparent
[8] = test system: hsa-mir-4520-1-mutG2A (RNA, miRNA) AGCCCAAAUCAAAAAAGGAUUUGGGCU; experiment: fluorescence titration; details: 20 mM NaCl, 80 mM KCl; 20 mM phosphate pH 7.0, 1% DMSO, 20 °C; apparent
[9] = test system: hsa-mir-4520-1-mutG7A (RNA, miRNA) AGCCCAAAUCAGAAAAAGAUUUGGGCU; experiment: fluorescence titration; details: 20 mM NaCl, 80 mM KCl; 20 mM phosphate pH 7.0, 1% DMSO, 20 °C; apparent
[10] = test system: hsa-mir-4520-1 mutG2,7A (RNA, miRNA) AGCCCAAAUCAAAAAAAGAUUUGGGCU; experiment: fluorescence titration; details: 20 mM NaCl, 80 mM KCl; 20 mM phosphate pH 7.0, 1% DMSO, 20 °C; apparent
[11] = test system: hsa-mir-6847 (RNA, miRNA) AGCGAGCUGGAAGGAGUGGGCCUGGCUCGCU; experiment: fluorescence titration; details: 20 mM NaCl, 80 mM KCl; 20 mM phosphate pH 7.0, 1% DMSO, 20 °C; apparent
[12] = test system: G4_(GGGU)6 (RNA, G4) AGCGGGUGGGUGGGUGGGUGGGUGGGUGCU; experiment: fluorescence titration; details: 20 mM NaCl, 80 mM KCl; 20 mM phosphate pH 7.0, 1% DMSO, 20 °C; apparent
[13] = test system: hsa-mir-4773-1 (RNA, miRNA) AGCUCUGCUUUAUUUCAUCAAAGCAGAGCU; experiment: fluorescence titration; details: 20 mM NaCl, 80 mM KCl; 20 mM phosphate pH 7.0, 1% DMSO, 20 °C; apparent
[14] = test system: common stem sequence with four Us in the terminal loop (RNA, hairpin) GUGUACGAAGUUUCAGCUUUUGCUGAAGCUUCGUGCAC; experiment: fluorescence titration; details: 20 mM NaCl, 80 mM KCl; 20 mM phosphate pH 7.0, 1% DMSO, 20 °C; apparent
[15] = test system: mutG7A (biotinylated) (RNA, miRNA) AGCCCAAAUCAGAAAAAGAUUUGGGCU; experiment: SPR, multi-cycle, 1:1 fit; details: 20 mM NaCl, 80 mM KCl; 20 mM phosphate pH 7.0, 1% DMSO, 25 °C; up to 50 μM; apparent
[16] = test system: hsa-mir-4520-1 loop (biotinylated) (RNA, miRNA) AGCCCAAAUCAGAAAAGGAUUUGGGCU; experiment: SPR, single-cycle kinetics; details: 20 mM NaCl, 80 mM KCl; 20 mM phosphate pH 7.0, 25 °C; apparent
[17] = test system: mutG2A (biotinylated) (RNA, miRNA) AGCCCAAAUCAAAAAAGGAUUUGGGCU; experiment: SPR, single-cycle kinetics; details: 20 mM NaCl, 80 mM KCl; 20 mM phosphate pH 7.0, 25 °C; apparent
[18] = 1 μM compound, range 2.6-16 μM for all RNAs
[19] = 20 mM phosphate pH 7.0, 1% DMSO, 20 °C, 0.1 μM compound

## COc1ccc2c(c[n+](C)c3c4cc5c(cc4ccc23)OCO5)c1OC
[1]; phosphate pH 7.0, 1 μM compound, range 2.6-16 μM for all RNAs
  KDapp: 4.0 ± 0.5 µM
[2]; [18]
  KDapp: 3.8 ± 0.5 µM
[3]; [18]
  KDapp: 2.6 ± 0.6 µM
[4]; [18]
  KDapp: 3.8 ± 0.3 µM
[5]; [18]
  KDapp: 12 ± 1 µM

## N#CC(c1ccnc(OCc2ccc(CN3CCOCC3)cc2)n1)c1nc2ccccc2s1 (stereo not shown)
[1]; phosphate pH 7.0, 1 μM compound
  KDapp: 4.5 µM
[2]; 1 μM compound
  KDapp: 14 µM
[3]; 1 μM compound
  KDapp: 20 µM

## CN1C(=CC=Cc2cc[n+](CCC[N+](C)(C)C)c3ccccc23)Sc2ccccc21
[1]; [19]
  KDapp: 0.19 µM

## O=c1c(O)c(-c2cc(O)c(O)c(O)c2)oc2cc(O)cc(O)c12
[1]; phosphate pH 7.0
  KDapp: 3.3 ± 0.1 µM
[2]; range 16-25 μM for target RNAs
  KDapp: 25 ± 3 µM
[3]; range 16-25 μM for target RNAs
  KDapp: 16 ± 0.5 µM
[4]; range 16-25 μM for target RNAs
  KDapp: 20 ± 2 µM
[5]; 0-40 μM RNA, low-rank RNA
  KDapp: > 40 µM

## O=c1cc(-c2ccccc2)oc2cc(O)c(O)c(O)c12
[2]; 0-40 μM RNA
  KDapp: > 40 µM
[3]; 0-40 μM RNA
  KDapp: > 40 µM
[4]; 0-40 μM RNA
  KDapp: > 40 µM

## C[n+]1ccc(C=C2Sc3ccccc3N2CCCCC(=O)NCCOCCOCCOCCN=[N+]=[N-])c2ccccc21
[6]
  KDapp: 4.4 µM

## C[n+]1c(C=C2C=CN(CCC[N+](C)(C)C)c3ccccc32)sc2ccccc21
[1]; [19]
  KDapp: 0.20 µM

## [N-]=[N+]=NCCOCCOCCOCCNC(=O)Cn1cc2c(nc1=O)Nc1c(OCCN)cccc1O2
[7]
  KDapp: 0.024 µM
[8]
  KDapp: 0.011 µM
[9]
  KDapp: 15 µM
[10]
  KDapp: 3.7 µM
[11]
  KDapp: 0.022 µM
[1]; 20 mM phosphate pH 7.0, 1% DMSO, 20 °C
  KDapp: 0.19 µM
[12]
  KDapp: 0.15 µM
[13]
  KDapp: > 20 µM
[14]
  KDapp: 9 µM
[15]
  KDapp: > 50 µM
[16]
  KDapp: 0.10 ± 0.02 µM
[17]
  KDapp: 0.044 ± 0.008 µM
